“Also recorded” adds a separate entry of the source.
Assays:
Format in all cases: cell-based, human
HES3-MIXL1-GFP hESCs [1] = assay: Primitive streak differentiation screening in array of BIO, BMP-4 and Activin A (MIXL1-GFP reporter)
Description: Cells were allowed to attach to the well array 330 for 8-10 h in an incubator (37° C., 5% CO2 in air), then subjected to continuous fluid flow under the specified factor conditions at 60 μL/h total flowrate.
Serial exchange of staining and washing solutions was driven by a syringe pump.
Spot intensities in each channel were linearly transformed about the mean and standard deviation for all spots in that channel in an individual array, by IEOS-GFP=(TEOS-GFP−μEOS-GFP)/σEOS-GFP, where IEOS-GFP is the expression index of EOS-GFP, and μEOS-GFP is the mean and σEOS-GFP the standard deviation of all TEOS-GFP for a particular array. This provides expression indices (IEOS-GFP, IMIXL1-GFP) rating each spot's intensity in terms of global standard deviations relative to the global mean.
Factorial analyses are performed on expression index data with MINITAB 15 software (Minitab Inc.). Expression indices were designated as response variables and soluble factors designated as inputs. A fourth input variable, ‘Position’, was defined based on each culture well's row coordinate in the array. Effect magnitudes were then generated by MINITAB according to methods described elsewhere^45. Pearson product-moment correlation coefficients (rX,Y), coefficients of determination for linear regression (R^2), and Student's t-test statistics were calculated with Microsoft Excel. For Student's t-tests, two-tailed tests were performed for two samples assuming unequal variances, and differences with p<0.05 were considered significant.
HES3-MIXL1-GFP hESCs (also, HES3 MIXL1^GFP/w hESCs; karyotying and in vivo teratomas) growing as a monolayer were differentiated under continual flow in the apparatus 300 for 2.5 d in a full-factorial array of BMP-4, Activin A, and the GSK-3β inhibitor/canonical Wnt activator 6-bromoindirubin-3′-oxime (BIO) in RPMI B27 medium. A screening panel showing array conditions is shown in FIG. 6A, with numbers indicating concentrations of BIO (μM), BMP-4 (ng/mL) and Activin A (ng/mL).

HES3-MIXL1-GFP hESCs [2] = assay: Static primitive streak induction cultures with chemical modulation of Wnt signals
Description: HES3-MIXL1-GFP hESCs maintained in mTeSR-1/Matrigel cultures were detached with TrypLE Express, seeded at 7.5×10^4 cells/cm^2 into 24-well plates coated with a limiting dilution of hESC-qualified Matrigel and allowed to attach overnight, after which cultures were typically ˜60% confluent. MIXL1-GFP expression was then induced by differentiating in RPMI B27 medium with 10 ng/ml BMP-4 and 6 ng/ml Activin A (both R&D Systems) for 2.5 d with optional addition of 5 μM IWP-4 and 5 μM CHIR99021 (both Stemgent), or 0.1% v/v DMSO vehicle control.
Although such paracrine factor dependencies and negative feedback signals regulating mesendoderm specification are clearly necessary developmental drivers in a transient in vivo structure such as primitive streak, they inevitably reduce efficiency of in vitro differentiation. It was therefore tested whether the outcomes of modulating positive and negative paracrine regulators in the array could be translated to optimise directed differentiation protocols in conventional static cultures.

HES3-MIXL1-GFP hESCs [3] = assay: Primitive streak array screening of CHIR99021, conditioned medium and IWP-4 (MIXL1-GFP reporter); conditions: background RPMI B27 with 10 ng/mL BMP-4 and 6 ng/mL Activin A, continuous flow
Description: For use in apparatus 300, conditioned medium was recovered from static controls differentiated in 10 ng/mL BMP-4 and 6 ng/mL Activin A in RPMI B27 medium. Cells were removed by centrifugation and supernatant medium stored at 4° C. Media from days 1 and 2 were mixed and BMP-4 and Activin A re-supplemented at 50% of nominal levels before use in arrays.

[4] = 2.5 d, continual flow, RPMI B27 medium

Molecule: O=C1Nc2cc(Br)ccc2/C1=C1/Nc2ccccc2/C1=N\O [BIO, 6-bromoindirubin-3′-oxime]
- optimum concentration for expression index IMIXL1-GFP (factorial analysis) (HES3-MIXL1-GFP hESCs [1]; 2.5 d, continual flow, RPMI B27 medium, levels 0, 1, 2 μM): 1 µM
- number of rows over which bright MIXL1-GFP expression extended (HES3-MIXL1-GFP hESCs [1]; column 15: 1 μM BIO with 10 ng/mL BMP-4, 6 ng/mL Activin A, single peak at row 7 without BIO): 4-5 rows

Molecule: Cc1c[nH]c(-c2cnc(NCCNc3ccc(C#N)cn3)nc2-c2ccc(Cl)cc2Cl)n1 [CHIR99021]
- MIXL1-GFP induction, % of cells (HES3-MIXL1-GFP hESCs [2]; 5 μM CHIR99021 added to RPMI B27+10 ng/mL BMP-4+6 ng/mL Activin A, 2.5 d, 51% under standard conditions): 86%
- effect on MIXL1-GFP expression level and position in the array (HES3-MIXL1-GFP hESCs [3]): only shifted expression up marginally; also recorded: produced an extended streak of MIXL1-GFP expression
- effect on MIXL1-GFP expression level and position in the array (HES3-MIXL1-GFP hESCs [3]; listed as CHIR): both improved the expression level and broadened the number of rows over which appreciable expression extended

Molecule: COc1ccccc1-n1c(SCC(=O)Nc2nc3ccc(C)cc3s2)nc2c(c1=O)SCC2 [IWP-4]
- MIXL1 induction (HES3-MIXL1-GFP hESCs [2]; static controls, FIG. 7H, 5 μM IWP-4): completely blocked MIXL1 induction

B1: BMP-4: soluble growth factor (R&D Systems) used for primitive streak induction (protein, UniProt P12644 293-408, looked up)
Bone morphogenetic protein 4: SPKHHSQRARKKNKNCRRHSLYVDFSDVGWNDWIVAPPGYQAFYCHGDCPFPLADHLNSTNHAIVQTLVNSVNSSIPKACCVPTELSAISMLYLDEYDKVVLKNYQEMVVEGCGCR
- optimum concentration for expression index IMIXL1-GFP (factorial analysis) (HES3-MIXL1-GFP hESCs [1]; [4]): 10 ng/mL

B2: Activin A: soluble growth factor (R&D Systems) used for primitive streak induction (protein, UniProt P08476 311-426, looked up)
Inhibin beta A chain: GLECDGKVNICCKKQFFVSFKDIGWNDWIIAPSGYHANYCEGECPSHIAGTSGSSLSFHSTVINHYRMRGHSPFANLKSCCVPTKLRPMSMLYYDDGQNIIKKDIQNMIVEECGCS
- dependence of expression index IMIXL1-GFP on factor (factorial analysis) (HES3-MIXL1-GFP hESCs [1]; [4]): linear, positive dependence
